The target in assay [1] is T1, full-length, nucleotide-free HSP70 protein (Homo sapiens, UniProt P0DMV8, E110D).
T1 construct: Full-length recombinant proteins of HSP70 (aa 1-641) as well as DnaK (aa 1-638); His6 (N); made in house; host or cells: E. coli BL21 Star (DE3)
Briefly: ITC binding to nucleotide-free full-length HSP70. Particulars: average and s.d. of two experiments, read-out: dissociation constant. The source says:
FIGS. 3A-3L illustrate that PET-16 binds directly to ADP-bound HSP70 and DnaK. Specifically, FIGS. 3A-3H are isothermal calorimetric titration (ITC) assays of the indicated compounds (NRLLLTG—SEQ ID NO: 7, PES or PET-16) with purified HSP70-ADP, DnaK-ADP or HSP70-ATP proteins. The data are representative of three independent experiments. FIGS. 3I and 3J are ITC assays for the interaction between HSP70 (aa 386-616 of SEQ ID NO: 2) protein and PET-16 (I) or TPP (J). Binding constants (Kd values) are shown (average and s.d. from three independent experiments). PET-16 also binds directly to the purified, full-length, nucleotide-free HSP70 protein, with a reported dissociation constant of 5.2+/−0.1 micromolar, which is the average and standard deviation from two independent experiments (data not shown). FIG. 3K is ITC assay of HSP70 protein preincubated with ADP and PES for 1 h. The mixture was titrated into the sample cell containing PET-16. The data are representative of three independent ITC experiments. FIG. 3L are western blots of human lung carcinoma (H1299) cells that were pretreated with DMSO or excess (8×) PET-16 for 1 h prior to the addition of 20 μM B-PES for 5 h and examined for the expression of HSP70 or BCL-xL. B-PES-containing complexes were captured by Avidin resins and immunoblotted either with anti-HSP70 or anti-BCL-xL antibody. […]

For a further assay, the system named is cathepsin L. Nature of the assay: Western blot of cathepsin L processing. In kind it is cell-based. Particulars: 24 h treatment. The source says:
FIGS. 4A-4L illustrate that PET-16 impairs proteostasis. […] There is a general absence of obvious nuclei in PET-16 treated tumor cells. […] FIGS. 4D and 4E are gels of whole-cell extracts (WCE) prepared from human melanoma A875 (D) or 451 Lu (E) cells treated with DMSO, PES or PET-16 that were immunoprecipitated using an anti-HSP70 antibody. The excised band of about 70 kDa shown in the Coomassie gel is HSP70, as confirmed by liquid chromatography—tandem mass spectrometry analysis. FIGS. 4F-4I are western blots of cell lines were treated with DMSO, PES or PET-16 for 24 h and immunoblotted for the indicated proteins. FIG. 4J are western blots of indicated melanomas pretreated with DMSO, PES or PET-16, followed by treatment with IL-6. Cell extracts were immunoblotted for the proteins indicated. Inhibition of IL-6 induced STAT3 and STAT1 phosphorylation by PET-16. FIG. 4K is a western blot analysis indicating altered processing of cathepsin L from the larger precursor form to the smaller mature form in the indicated cells following PET-16 treatment for 24 h. FIG. 4L is a western blot of the human melanoma 451 Lu cells treated with DMSO, PES or PET-16 for 24 h. Cells were harvested in 1% NP40-containing lysis buffer, fractionated into detergent-soluble and detergent-insoluble preparations, and assayed by western blot for ubiquitin. […]

T1 sequence (P0DMV8 whole entry E110D, the tested form may be a part): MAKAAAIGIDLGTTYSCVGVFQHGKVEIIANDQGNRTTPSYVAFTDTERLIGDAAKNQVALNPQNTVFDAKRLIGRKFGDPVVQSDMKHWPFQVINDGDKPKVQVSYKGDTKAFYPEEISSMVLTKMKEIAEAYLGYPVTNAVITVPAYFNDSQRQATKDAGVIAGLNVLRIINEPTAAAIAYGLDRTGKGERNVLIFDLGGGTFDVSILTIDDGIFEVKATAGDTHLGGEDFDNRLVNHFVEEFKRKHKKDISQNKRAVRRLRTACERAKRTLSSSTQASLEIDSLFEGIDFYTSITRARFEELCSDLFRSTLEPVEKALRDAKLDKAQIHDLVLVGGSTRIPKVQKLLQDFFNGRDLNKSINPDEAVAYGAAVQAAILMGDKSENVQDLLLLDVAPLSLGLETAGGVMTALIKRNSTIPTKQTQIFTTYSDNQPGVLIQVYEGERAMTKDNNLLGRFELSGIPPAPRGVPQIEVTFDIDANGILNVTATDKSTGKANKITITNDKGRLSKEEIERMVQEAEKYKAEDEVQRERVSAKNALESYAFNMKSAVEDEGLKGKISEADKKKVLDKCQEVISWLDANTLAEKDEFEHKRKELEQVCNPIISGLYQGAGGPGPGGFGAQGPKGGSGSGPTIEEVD

As for `C(#C[P+](c1ccccc1)(c1ccccc1)c1ccccc1)c1ccccc1.[Br-]` [PET-16, triphenyl(phenylethynyl)phosphonium bromide], the Kd in assay [1] is 5.2 µM. In addition, the “cathepsin L processing” value in the assay on cathepsin L is “accumulation of the precursor procathepsin L and a markedly reduced abundance of the smaller, mature form”.
